# From patent publication US6447997B1, “Gene coding for GADD153 as a clinical diagnostic and prognostic in cancer therapy” (Research Development Foundation, priority 1997, dated 2002)
# Key:
# GADD153 mRNA = assay: Change in GADD153 mRNA in tumor biopsies of head and neck cancer patients after cDDP-based treatment; assay type: in vivo, human; conditions: 24 h after start of first course
# Procedure: The present inventors have also discovered that the prognostic method for clinical response by a tumor to a chemotherapeutic agent can accurately predict a corresponding therapeutic response by a patient even though there exist several sources for potential variation. The relationship between the change in GADD153 mRNA level at 24 h after the start of the first course of treatment with cDDP or cDDP plus radiation therapy and subsequent tumor clinical response to this therapy in 32 patients with stage IV head and neck cancer was examined.
# Thirty-two patients with previously untreated stage IV head and neck cancer were treated at the UCSD Cancer Center on a phase I/II experimental protocol. All patients had been considered to have unresectable tumors. All patients received i.a. cDDP (150-200 mg/M^2) and i.v. sodium thiosulfate infusion concurrently. The details of this treatment program have been published elsewhere by the present inventors (17,18), which description is specifically incorporated herein by reference. cDDP was dissolved in 400 ml of 0.9% saline and infused over 3-5 minutes through a microcatheter placed angiographically to selectively encompass the dominant blood supply of the targeted tumor. Simultaneous with the cDDP infusion, sodium thiosulfate was infused i.v. at a dose of 9 g/m^2 dissolved in 300 ml of distilled water over 3 minutes, followed by 12 g/m^2 dissolved in one liter of distilled water over 6 h by continuous infusion to prevent severe nephrotoxicity. Treatment was repeated weekly for a total of 4 doses. […] Tumor response was assessed at 2 months using criteria based on physical examination, repeat computed tomography/magnetic resonance imaging studies, and repeat endoscopy and biopsy. […]
# GADD153 message levels were quantified using a modification of the technique reported by Horikoshi et al (20). […] PCR products were separated on a 8 M (6%) acrylamide gel and analyzed using a Molecular Imaging System (BioRad, Hercules, Calif.). […]
# [1] = system: stage IV head and neck cancer; assay: Tumor clinical response of patients to cDDP-based treatment; assay type: in vivo, human; conditions: i.a. cDDP with i.v. sodium thiosulfate, with or without radiation therapy
# Procedure: Thirty-two patients with previously untreated stage IV head and neck cancer were treated at the UCSD Cancer Center on a phase I/II experimental protocol. All patients had been considered to have unresectable tumors. All patients received i.a. cDDP (150-200 mg/M^2) and i.v. sodium thiosulfate infusion concurrently. The details of this treatment program have been published elsewhere by the present inventors (17,18), which description is specifically incorporated herein by reference. cDDP was dissolved in 400 ml of 0.9% saline and infused over 3-5 minutes through a microcatheter placed angiographically to selectively encompass the dominant blood supply of the targeted tumor. Simultaneous with the cDDP infusion, sodium thiosulfate was infused i.v. at a dose of 9 g/m^2 dissolved in 300 ml of distilled water over 3 minutes, followed by 12 g/m^2 dissolved in one liter of distilled water over 6 h by continuous infusion to prevent severe nephrotoxicity. Treatment was repeated weekly for a total of 4 doses. In addition, 17 of the 32 patients received radiotherapy in doses of […] (×35 fractions) starting concurrently with the start of cDDP treatment. Needle aspiration or small cutting needle biopsies were obtained just before and at 24 h following the first dose of cDDP. Tumor response was assessed at 2 months using criteria based on physical examination, repeat computed tomography/magnetic resonance imaging studies, and repeat endoscopy and biopsy.
structure (smiles),measurement,setting,value
"[NH2][Pt]([NH2])([Cl])[Cl] [cDDP, cisplatin]","magnitude of increase, above baseline, in GADD153 mRNA, mean (SD)",GADD153 mRNA; CR group (17 patients),3.8±2.2 fold
same,"magnitude of increase, above baseline, in GADD153 mRNA, mean (SD)",GADD153 mRNA; NR group (7 patients with tumor progression),0.8±0.5 fold
same,"magnitude of increase, above baseline, in GADD153 mRNA, mean (SD)","GADD153 mRNA; PR group, all 8 patients",1.6±0.9 fold
same,patients who achieved a partial regression (PR),[1]; assessed at 2 months,8 of the 32
same,patients who attained a complete regression of the tumor (CR),[1]; assessed at 2 months,17 of the 32
same,patients who had tumor progression (NR),[1]; of 32 patients,7 patients
